Where two headings read alike, the source gives them in different places.
System: 134 cancer cell lines
Assay: Cell viability assay (ATPlite, 72 hours), IC50 on cancer cell line panel

## COc1ccc(CN2C3CC2CN(c2ccc(-c4cc(OCC(C)(C)O)cn5ncc(C#N)c45)cn2)C3)cn1 [selpercatinib]
Homo sapiens, MOLT-4, read-out: IC50 in cell proliferation assay, MOLT-4 cell line
  IC50: 1.67 µM
Homo sapiens, MV4-11, read-out: IC50 in cell proliferation assay, MV4-11 cell line (FLT3 ITD)
  IC50: 0.167 µM
Homo sapiens, MeWo, read-out: IC50 in cell proliferation assay, MeWo cell line
  IC50: 5.53 µM
Homo sapiens, NCCIT, read-out: IC50 in cell proliferation assay, NCC-IT cell line
  IC50: 1.58 µM
Homo sapiens, NCI-H82, read-out: IC50 in cell proliferation assay, cell line NCI-H82
  IC50: 3.23 µM
Homo sapiens, NCI-H460, read-out: IC50 in cell proliferation assay, NCI-H460 cell line
  IC50: 4.27 µM
Homo sapiens, NCI-H661, read-out: IC50 in cell proliferation assay, NCI-H661 cell line
  IC50: 8.68 µM
Homo sapiens, NCI-H716, read-out: IC50 in cell proliferation assay, cell line NCI-H716 (FGFR2-COL14A1)
  IC50: 0.262 µM
Homo sapiens, NCI-H1650, read-out: IC50 in cell proliferation assay, NCI-H1650 cell line (EGFR exon19del)
  IC50: 7.36 µM
Homo sapiens, NCI-H1975, read-out: IC50 in cell proliferation assay, NCI-H1975 cell line (EGFR p.L858R + p.T790M)
  IC50: 22.4 µM
Homo sapiens, NCI-H2228, read-out: IC50 in cell proliferation assay, NCI-H2228 cell line (EML4-ALK)
  IC50: 10.2 µM
Homo sapiens, OVCAR-3, read-out: IC50 in cell proliferation assay, cell line OVCAR-3
  IC50: 5.67 µM
Homo sapiens, PFSK-1, read-out: IC50 in cell proliferation assay, cell line PFSK-1
  IC50: > 31.6 µM
Homo sapiens, RL95-2, read-out: IC50 in cell proliferation assay, cell line RL95-2 (EGFR p.A289V)
  IC50: 2.28 µM
Homo sapiens, RPMI-7951, read-out: IC50 in cell proliferation assay, cell line RPMI-7951 (BRAF p.V600E)
  IC50: 5.59 µM
Homo sapiens, RS4-11, read-out: IC50 in cell proliferation assay, cell line RS4;11
  IC50: 1.63 µM
Homo sapiens, Rec1, read-out: IC50 in cell proliferation assay, cell line REC-1
  IC50: 7.32 µM
Homo sapiens, SHP77, read-out: IC50 in cell proliferation assay, cell line SHP-77
  IC50: 8.18 µM
Homo sapiens, SK-BR-3, read-out: IC50 in cell proliferation assay, cell line SK-BR-3 (ERBB2 amplification)
  IC50: 22.6 µM
Homo sapiens, SK-N-AS, read-out: IC50 in cell proliferation assay, cell line SK-N-AS
  IC50: 3.81 µM
Homo sapiens, SK-N-FI, read-out: IC50 in cell proliferation assay, cell line SK-N-FI
  IC50: 4 µM
Homo sapiens, SK-N-MC, read-out: IC50 in cell proliferation assay, cell line SK-N-MC
  IC50: 3.28 µM
Homo sapiens, SK-N-SH, read-out: IC50 in cell proliferation assay, cell line SK-N-SH (ALK p.F1174L)
  IC50: 2.59 µM
Homo sapiens, SNU-5, read-out: IC50 in cell proliferation assay, cell line SNU-5 (MET amplification)
  IC50: > 31.6 µM
Homo sapiens, SNU-16, read-out: IC50 in cell proliferation assay, cell line SNU-16 (FGFR2 amplification)
  IC50: 0.304 µM
Homo sapiens, SNU-C2B, read-out: IC50 in cell proliferation assay, cell line SNU-C2B (EGFR p.R165Q)
  IC50: > 31.6 µM
Homo sapiens, SU-DHL-1, read-out: IC50 in cell proliferation assay, cell line SU-DHL-1 (NPM1-ALK)
  IC50: 2.76 µM
Homo sapiens, SU-DHL-6, read-out: IC50 in cell proliferation assay, cell line SU-DHL-6
  IC50: 4.61 µM
Homo sapiens, SUP-T1, read-out: IC50 in cell proliferation assay, cell line SUP-T1
  IC50: 2.33 µM
Homo sapiens, SW48, read-out: IC50 in cell proliferation assay, cell line SW48 (EGFR p.G719S)
  IC50: 2.74 µM
Homo sapiens, SW480, read-out: IC50 in cell proliferation assay, cell line SW480
  IC50: 4.03 µM
Homo sapiens, SW626, read-out: IC50 in cell proliferation assay, cell line SW626
  IC50: > 31.6 µM
Homo sapiens, SW780, read-out: IC50 in cell proliferation assay, cell line SW780 (FGFR3-BAIAP2L1)
  IC50: 1.95 µM
Homo sapiens, SW837, read-out: IC50 in cell proliferation assay, cell line SW837
  IC50: 3.48 µM
Homo sapiens, SW872, read-out: IC50 in cell proliferation assay, cell line SW872 (BRAF p.V600E)
  IC50: 5.78 µM
Homo sapiens, SW900, read-out: IC50 in cell proliferation assay, cell line SW900
  IC50: 5.03 µM
Homo sapiens, SW948, read-out: IC50 in cell proliferation assay, cell line SW948
  IC50: 3.92 µM
Homo sapiens, SW982, read-out: IC50 in cell proliferation assay, cell line SW982 (BRAF p.V600E)
  IC50: 3.57 µM
Homo sapiens, SW-620, read-out: IC50 in cell proliferation assay, cell line SW620
  IC50: 2.62 µM
Homo sapiens, T98G, read-out: IC50 in cell proliferation assay, cell line T98G
  IC50: 2.69 µM
Homo sapiens, TCC-SUP, read-out: IC50 in cell proliferation assay, cell line TCCSUP
  IC50: 3.13 µM
Homo sapiens, THP-1, read-out: IC50 in cell proliferation assay, cell line THP-1
  IC50: > 31.6 µM
Homo sapiens, U2OS, read-out: IC50 in cell proliferation assay, cell line U2OS
  IC50: 4.78 µM
Homo sapiens, U-87 MG, read-out: IC50 in cell proliferation assay, cell line U-87MG ATCC
  IC50: > 31.6 µM
Homo sapiens, U-118-MG, read-out: IC50 in cell proliferation assay, cell line U-118MG
  IC50: 6.34 µM
Homo sapiens, UMUC3, read-out: IC50 in cell proliferation assay, cell line UM-UC-3
  IC50: 1.3 µM
Hs766T, read-out: IC50 in cell proliferation assay, Hs 766T cell line
  IC50: 4.97 µM
L-82, read-out: IC50 in cell proliferation assay, L-82 cell line (NPM1-ALK)
  IC50: 5.23 µM
Rh30, read-out: IC50 in cell proliferation assay, cell line Rh30
  IC50: 4.03 µM
read-out: IC50 in cell proliferation assay, 11-18 cell line (EGFR p.L858R)
  IC50: 4.08 µM
read-out: IC50 in cell proliferation assay, Hs 852.T cell line
  IC50: 5.9 µM
read-out: IC50 in cell proliferation assay, JAR cell line
  IC50: 4.4 µM
read-out: IC50 in cell proliferation assay, cell line 5637
  IC50: 4.53 µM
read-out: IC50 in cell proliferation assay, cell line A-388
  IC50: 9.59 µM
read-out: IC50 in cell proliferation assay, cell line DB
  IC50: 3.37 µM
read-out: IC50 in cell proliferation assay, cell line DEL (NPM1-ALK)
  IC50: 3.36 µM
read-out: IC50 in cell proliferation assay, cell line ES-2 (BRAF p.V600E)
  IC50: > 31.6 µM
read-out: IC50 in cell proliferation assay, cell line PA-1
  IC50: 1.82 µM
read-out: IC50 in cell proliferation assay, cell line PC-3
  IC50: 3.85 µM
read-out: IC50 in cell proliferation assay, cell line RD
  IC50: 6.94 µM
read-out: IC50 in cell proliferation assay, cell line RKO (BRAF p.V600E)
  IC50: 5.12 µM
read-out: IC50 in cell proliferation assay, cell line RL
  IC50: 2.06 µM
read-out: IC50 in cell proliferation assay, cell line RT-4 (FGFR3-TACC3)
  IC50: 1.38 µM
read-out: IC50 in cell proliferation assay, cell line SR (NPM1-ALK)
  IC50: 2.58 µM
read-out: IC50 in cell proliferation assay, cell line T24
  IC50: 5.15 µM
read-out: IC50 in cell proliferation assay, cell line TT (RET p.C634W)
  IC50: 0.019 µM
read-out: IC50 in cell proliferation assay, cell line VA-ES-BJ
  IC50: 2.79 µM

Reference: PMC9516332 (Frontiers in Oncology, 2022)
